# Assay results taken from PubChem BioAssay AID248 (DTP/NCI, 2004).
# Where “and” joins values, the source holds several entries; their conditions need not be identical. Equal values may be shown once. Toxic doses and inconclusive results are not listed.
# System: L1210 leukemia ip in BDF1 mice, survival T/C
# Test: NCI In Vivo Anticancer Drug Screen. Data for tumor model L1210 Leukemia (intraperitoneal) in B6D2F1 (BDF1) mice
# Details: endpoint: mean survival time, higher = longer survival
# How it was run: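 Transplantable tumor model; survival measured in treated vs vehicle control mice. Value = treated/control.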
# [1] = dose: 100.0 mg/kg/injection, schedule: Q04DX003 (ip), vehicle: Klucel (hydroxypropylcellulose) (HPC)
# [2] = dose: 200.0 mg/kg/injection, schedule: Q04DX003 (ip), vehicle: Klucel (hydroxypropylcellulose) (HPC)
# [3] = dose: 400.0 mg/kg/injection, schedule: Q04DX003 (ip), vehicle: Klucel (hydroxypropylcellulose) (HPC)
# [4] = dose: 100.0 mg/kg/injection, schedule: Q01DX009 (ip), vehicle: saline with Tween-80
# [5] = dose: 200.0 mg/kg/injection, schedule: Q01DX009 (ip), vehicle: saline with Tween-80
# [6] = dose: 100.0 mg/kg/injection, schedule: Q04DX003 (ip), vehicle: saline
# [7] = dose: 200.0 mg/kg/injection, schedule: Q04DX003 (ip), vehicle: saline
# [8] = dose: 400.0 mg/kg/injection, schedule: Q04DX003 (ip), vehicle: saline
# [9] = dose: 100.0 mg/kg/injection, schedule: Q04DX003 (ip), vehicle: saline with Tween-80
# [10] = dose: 200.0 mg/kg/injection, schedule: Q04DX003 (ip), vehicle: saline with Tween-80
# [11] = dose: 400.0 mg/kg/injection, schedule: Q04DX003 (ip), vehicle: saline with Tween-80
# [12] = dose: 50.0 mg/kg/injection, schedule: Q01DX009 (ip), vehicle: saline with Tween-80
# [13] = dose: 100.0 mg/kg/injection, schedule: Q01DX009 (ip), vehicle: Klucel (hydroxypropylcellulose) (HPC)
# [14] = dose: 200.0 mg/kg/injection, schedule: Q01DX009 (ip), vehicle: Klucel (hydroxypropylcellulose) (HPC)
# [15] = dose: 400.0 mg/kg/injection, schedule: Q01DX009 (ip), vehicle: Klucel (hydroxypropylcellulose) (HPC)
# [16] = dose: 50.0 mg/kg/injection, schedule: Q01DX009 (ip), vehicle: Klucel (hydroxypropylcellulose) (HPC)
structure (smiles),measurement,setting,value
O=C1NC(=O)C(c2cc(Cl)co2)N1 (configuration not stated),T/C,[1],105 % of control
same,T/C,[2],108 % of control
same,T/C,[3],101 % of control
C1CSP(SCCSP2SCCS2)S1,T/C,"dose: 25.0 mg/kg/injection, schedule: Q01DX009 (ip), vehicle: carboxymethylcellulose (CMC)",87 % of control and 88 % of control
same,T/C,"dose: 25.0 mg/kg/injection, schedule: Q04DX002 (ip), vehicle: carboxymethylcellulose (CMC)",95 % of control and 90 % of control
same,T/C,"dose: 50.0 mg/kg/injection, schedule: Q01DX009 (ip), vehicle: carboxymethylcellulose (CMC)",95 % of control
same,T/C,"dose: 50.0 mg/kg/injection, schedule: Q04DX002 (ip), vehicle: carboxymethylcellulose (CMC)",97 % of control and 90 % of control
same,T/C,"dose: 100.0 mg/kg/injection, schedule: Q01DX009 (ip), vehicle: carboxymethylcellulose (CMC)",95 % of control and 91 % of control
same,T/C,"dose: 200.0 mg/kg/injection, schedule: Q04DX002 (ip), vehicle: carboxymethylcellulose (CMC)",94 % of control
O=C(NO)Nc1ccc([N+](=O)[O-])cc1,T/C,"dose: 100.0 mg/kg/injection, schedule: Q01DX001 (ip), vehicle: saline with Tween-80",97 % of control
same,T/C,[4],93 % of control
same,T/C,"dose: 200.0 mg/kg/injection, schedule: Q01DX001 (ip), vehicle: saline with Tween-80",90 % of control
same,T/C,[5],89 % of control
same,T/C,"dose: 400.0 mg/kg/injection, schedule: Q01DX001 (ip), vehicle: saline with Tween-80",99 % of control
same,T/C,"dose: 400.0 mg/kg/injection, schedule: Q01DX009 (ip), vehicle: saline with Tween-80",98 % of control
CCOC(=O)C1(C(=O)OCC)C/C=C/CC(C(=O)OCC)(C(=O)OCC)C/C=C/C1,T/C,"dose: 100.0 mg/kg/injection, schedule: Q01DX009 (ip), vehicle: saline",90 % of control
same,T/C,[6],98 % of control
same,T/C,"dose: 200.0 mg/kg/injection, schedule: Q01DX009 (ip), vehicle: saline",102 % of control
same,T/C,[7],95 % of control
same,T/C,"dose: 400.0 mg/kg/injection, schedule: Q01DX009 (ip), vehicle: saline",92 % of control
same,T/C,[8],90 % of control
O=C(Nc1cccc(NC(=O)c2ccccc2)c1)c1ccccc1,T/C,[1],92 % of control
same,T/C,[2],95 % of control
same,T/C,[3],90 % of control
Cc1cc2ncn(CC(=O)NN)c2cc1C,T/C,[4],86 % of control
same,T/C,[9],92 % of control
same,T/C,[10],95 % of control
same,T/C,[11],92 % of control
COc1ccc(C)cc1NC(=O)Sc1ccc(Cl)cc1,T/C,[12],117 % of control
same,T/C,[4],95 % of control
C=CCNC(=S)NCc1cccc2ccccc12,T/C,[13],98 % of control
same,T/C,[14],111 % of control
same,T/C,[15],88 % of control
CCOC(=O)c1cnc(N(C)CC(=O)O)[nH]c1=O,T/C,"dose: 100.0 mg/kg/injection, schedule: Q04DX002 (ip), vehicle: Klucel (hydroxypropylcellulose) (HPC)",94 % of control
same,T/C,"dose: 200.0 mg/kg/injection, schedule: Q04DX002 (ip), vehicle: Klucel (hydroxypropylcellulose) (HPC)",94 % of control
same,T/C,"dose: 400.0 mg/kg/injection, schedule: Q04DX002 (ip), vehicle: Klucel (hydroxypropylcellulose) (HPC)",107 % of control
CCC(C)C(C#N)(CCN(CC)CC)c1ccccc1 (configuration not stated),T/C,[16],104 % of control
same,T/C,[13],100 % of control
same,T/C,[1],111 % of control
same,T/C,[2],103 % of control
O=C(Nc1ccc(S(=O)(=O)Nc2ccc(N=Nc3ccccc3)cc2)cc1)C(SC1=NC=NC2=NC=NC21)SC1=NC=NC2=NC=NC21 (configuration not stated),T/C,"dose: 75.0 mg/kg/injection, schedule: Q04DX003 (ip), vehicle: saline",104 % of control
same,T/C,"dose: 150.0 mg/kg/injection, schedule: Q04DX003 (ip), vehicle: saline",96 % of control
same,T/C,"dose: 300.0 mg/kg/injection, schedule: Q04DX003 (ip), vehicle: saline",109 % of control
CCCCCCCCCCCCCCCCCC(=O)Oc1ccc(OCc2ccccc2)cc1,T/C,[13],105 % of control
same,T/C,[14],95 % of control
same,T/C,[15],97 % of control
COc1cc(/C=N\NC(=O)CC#N)cc(OC)c1OC,T/C,[12],87 % of control
same,T/C,[4],87 % of control
same,T/C,[5],94 % of control
c1ccc(/C2=C(\c3ccccc3)CSSSSC2)cc1,T/C,"dose: 50.0 mg/kg/injection, schedule: Q04DX003 (ip), vehicle: Klucel (hydroxypropylcellulose) (HPC)",105 % of control
same,T/C,[1],98 % of control
same,T/C,[2],98 % of control
[O-][n+]1c(C(Br)(Br)Br)ccc2ccccc21,T/C,[16],97 % of control
same,T/C,[13],95 % of control
same,T/C,[14],106 % of control
Cc1ccc(C(SCC(N)C(=O)O)(c2ccccc2)c2ccccc2)cc1 (configuration not stated),T/C,"dose: 12.5 mg/kg/injection, schedule: Q01DX009 (ip), vehicle: other",157 % of control
same,T/C,"dose: 12.5 mg/kg/injection, schedule: Q01DX009 (ip), vehicle: saline",159 % of control
same,T/C,"dose: 25.0 mg/kg/injection, schedule: Q01DX009 (ip), vehicle: other",157 % of control
same,T/C,"dose: 25.0 mg/kg/injection, schedule: Q01DX009 (ip), vehicle: saline",171 % of control
same,T/C,"dose: 50.0 mg/kg/injection, schedule: Q01DX009 (ip), vehicle: other",151 % of control
same,T/C,"dose: 50.0 mg/kg/injection, schedule: Q01DX009 (ip), vehicle: saline",204 % of control
CCC[As](=O)(O)c1ccc(Cl)cc1,T/C,"dose: 1.56 mg/kg/injection, schedule: Q01DX001 (ip), vehicle: Klucel (hydroxypropylcellulose) (HPC)",100 % of control
same,T/C,"dose: 3.13 mg/kg/injection, schedule: Q01DX001 (ip), vehicle: Klucel (hydroxypropylcellulose) (HPC)",91 % of control
same,T/C,"dose: 6.25 mg/kg/injection, schedule: Q01DX001 (ip), vehicle: Klucel (hydroxypropylcellulose) (HPC)",98 % of control
same,T/C,"dose: 12.5 mg/kg/injection, schedule: Q01DX001 (ip), vehicle: Klucel (hydroxypropylcellulose) (HPC)",109 % of control
same,T/C,"dose: 25.0 mg/kg/injection, schedule: Q01DX001 (ip), vehicle: Klucel (hydroxypropylcellulose) (HPC)",92 % of control
CN=C(N)c1ccc(NC(=O)Nc2ccc(NC(=O)Nc3ccc(C(N)=NC)cc3)cc2)cc1,T/C,"dose: 50.0 mg/kg/injection, schedule: Q01DX Z (oral), vehicle: saline",95 % of control
same,T/C,"dose: 60.0 mg/kg/injection, schedule: Q01DX Z (ip), vehicle: saline",157 % of control
same,T/C,"dose: 100.0 mg/kg/injection, schedule: Q01DX Z (oral), vehicle: saline",89 % of control
same,T/C,"dose: 120.0 mg/kg/injection, schedule: Q01DX Z (ip), vehicle: saline",205 % of control
same,T/C,"dose: 200.0 mg/kg/injection, schedule: Q01DX Z (oral), vehicle: saline",95 % of control
same,T/C,"dose: 240.0 mg/kg/injection, schedule: Q01DX Z (ip), vehicle: saline",108 % of control
same,T/C,"dose: 400.0 mg/kg/injection, schedule: Q01DX Z (oral), vehicle: saline",96 % of control
same,T/C,"dose: 480.0 mg/kg/injection, schedule: Q01DX Z (ip), vehicle: saline",90 % of control
O=c1cc(COc2ccccc2Cl)[nH]c(=O)[nH]1,T/C,[9],95 % of control
same,T/C,[10],95 % of control
same,T/C,[11],95 % of control
COc1ccccc1C(=S)N1CCCCC1,T/C,[6],97 % of control
same,T/C,[7],89 % of control
same,T/C,[8],92 % of control
COc1ccc(C(CC(=O)O)c2cc(OC)c(OC)c(OC)c2)cc1OC (configuration not stated),T/C,"dose: 100.0 mg/kg/injection, schedule: Q01DX001 (ip), vehicle: carboxymethylcellulose (CMC)",92 % of control
same,T/C,"dose: 200.0 mg/kg/injection, schedule: Q01DX001 (ip), vehicle: carboxymethylcellulose (CMC)",93 % of control
same,T/C,"dose: 400.0 mg/kg/injection, schedule: Q01DX001 (ip), vehicle: carboxymethylcellulose (CMC)",93 % of control
[O-][n+]1ccccc1CCO,T/C,"dose: 100.0 mg/kg/injection, schedule: Q04DX002 (ip), vehicle: saline",98 % of control
same,T/C,"dose: 200.0 mg/kg/injection, schedule: Q04DX002 (ip), vehicle: saline",106 % of control
same,T/C,"dose: 400.0 mg/kg/injection, schedule: Q04DX002 (ip), vehicle: saline",92 % of control
CCCCCc1cc(=O)[nH]c(=O)[nH]1,T/C,"dose: 50.0 mg/kg/injection, schedule: Q01DX001 (ip), vehicle: Klucel (hydroxypropylcellulose) (HPC)",97 % of control
same,T/C,"dose: 100.0 mg/kg/injection, schedule: Q01DX001 (ip), vehicle: Klucel (hydroxypropylcellulose) (HPC)",96 % of control
same,T/C,"dose: 200.0 mg/kg/injection, schedule: Q01DX001 (ip), vehicle: Klucel (hydroxypropylcellulose) (HPC)",96 % of control
CC(C)=C(c1ccc(Cl)cc1)c1c(Cl)ncnc1Cl,T/C,[9],101 % of control
same,T/C,[10],102 % of control
same,T/C,[11],104 % of control
